Test results as given in article PMC7377239, “Cardiovascular Effects of Polychlorinated Biphenyls and Their Major Metabolites” (Environmental Health Perspectives, 2020).
Structures can show the parent of a compound that is named as a salt. Where two headings read alike, the source gives them in different places.

Test system: iCell cardiomyocytes (human iPSC-derived cardiomyocytes)
Assay: Intracellular Ca2+ flux / beating parameters in iCell cardiomyocytes (FLIPR tetra), 90 min or 24 h
Format: cell-based
Details: for activity at 0.01 µM / activity at 0.1 µM / activity at 1 µM / activity at 10 µM / activity at 100 µM: Homo sapiens, Cardiomyocyte, 0.00 µM = 100.00; for activity at 0.1 µM: 0.10 µM
In short: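 Gelatin-plated iCell cardiomyocytes (5,000/well) were dye-loaded for 2 h at 37 °C, then exposed for 90 min or 24 h to PCBs/metabolites (5× plates at 0.05–500 µM; 0.5% DMSO final) in triplicate. Ca2+ flux was read for 100 s at 8 Hz and 37 °C. Peak height, frequency, spacing CV and decay/rise ratio were vehicle-normalized and fitted with a four-parameter logistic model, with POD set at 1 SD of vehicle.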

[1] = 1.5 h, read-out: cm.amp.avg.90min
[2] = 1.5 h, read-out: cm.amp.cv.90min
[3] = 1.5 h, read-out: cm.decay.rise.90min
[4] = 1.5 h, read-out: cm.spacing.cv.90min
[5] = 24 h, read-out: cm.amp.avg.24hrs
[6] = 24 h, read-out: cm.amp.cv.24hrs
[7] = 24 h, read-out: cm.decay.rise.24hrs
[8] = 24 h, read-out: cm.spacing.cv.24hrs

Structure (SMILES): Clc1ccc(-c2ccccc2)cc1 [PCB3]
- activity at 0.01 µM [1]: 98.5%
- activity at 0.01 µM [2]: 109%
- activity at 0.01 µM (1.5 h, read-out: cm.bpm.90min): 95.3%
- activity at 0.01 µM [3]: 98.9%
- activity at 0.01 µM [4]: 124%
- activity at 0.1 µM [1]: 104%
- activity at 0.1 µM [2]: 102%
- activity at 0.1 µM (1.5 h, read-out: cm.bpm.90min): 96.5%
- activity at 0.1 µM [3]: 99.5%
- activity at 0.1 µM [4]: 116%
- activity at 1 µM [1]: 99.9%
- activity at 1 µM [2]: 123%
- activity at 1 µM (1.5 h, read-out: cm.bpm.90min): 96.5%
- activity at 1 µM [3]: 96.1%
- activity at 1 µM [4]: 130%
- activity at 10 µM [1]: 99.5%
- activity at 10 µM [2]: 115%
- activity at 10 µM (1.5 h, read-out: cm.bpm.90min): 103%
- activity at 10 µM [3]: 98.8%
- activity at 10 µM [4]: 121%
- activity at 100 µM [1]: 81.2%
- activity at 100 µM [2]: 180%
- activity at 100 µM (1.5 h, read-out: cm.bpm.90min): 193%
- activity at 100 µM [3]: 99.9%
- activity at 100 µM [4]: 133%
- activity at 0.01 µM [5]: 91.3%
- activity at 0.01 µM [6]: 119%
- activity at 0.01 µM (24 h, read-out: cm.bpm.24hrs): 103%
- activity at 0.01 µM [7]: 98.3%
- activity at 0.01 µM [8]: 138%
- activity at 0.1 µM [5]: 87.1%
- activity at 0.1 µM [6]: 41.5%
- activity at 0.1 µM (24 h, read-out: cm.bpm.24hrs): 52.5%
- activity at 0.1 µM [7]: 47.1%
- activity at 0.1 µM [8]: 61.2%
- activity at 1 µM [5]: 87.1%
- activity at 1 µM [6]: 146%
- activity at 1 µM (24 h, read-out: cm.bpm.24hrs): 103%
- activity at 1 µM [7]: 104%
- activity at 1 µM [8]: 118%
- activity at 10 µM [5]: 110%
- activity at 10 µM [6]: 106%
- activity at 10 µM (24 h, read-out: cm.bpm.24hrs): 110%
- activity at 10 µM [7]: 98.5%
- activity at 10 µM [8]: 128%
- activity at 100 µM [5]: 0%
- activity at 100 µM [6]: 0%
- activity at 100 µM (24 h, read-out: cm.bpm.24hrs): 0%
- activity at 100 µM [7]: 0%
- activity at 100 µM [8]: 0%

Structure (SMILES): Clc1ccc(-c2ccccc2)cc1 [PCB 3, 4-chlorobiphenyl]
- inotropic effect (cell beating parameters) (iPSC-CMs, concentration-response 0.01-100 μM, 90 min and 24 h): positive inotropic effects

Structure (SMILES): O=S(=O)(O)Oc1cccc(-c2ccc(Cl)cc2)c1 [3'-yl PCB 3 sulfate]
- activity at 0.01 µM [1]: 106%
- activity at 0.01 µM [2]: 121%
- activity at 0.01 µM (1.5 h, read-out: cm.bpm.90min): 96.5%
- activity at 0.01 µM [3]: 95.8%
- activity at 0.01 µM [4]: 108%
- activity at 0.1 µM [1]: 106%
- activity at 0.1 µM [2]: 103%
- activity at 0.1 µM (1.5 h, read-out: cm.bpm.90min): 100%
- activity at 0.1 µM [3]: 99.3%
- activity at 0.1 µM [4]: 110%
- activity at 1 µM [1]: 111%
- activity at 1 µM [2]: 84.7%
- activity at 1 µM (1.5 h, read-out: cm.bpm.90min): 99.1%
- activity at 1 µM [3]: 96.2%
- activity at 1 µM [4]: 94.2%
- activity at 10 µM [1]: 109%
- activity at 10 µM [2]: 88.3%
- activity at 10 µM (1.5 h, read-out: cm.bpm.90min): 100%
- activity at 10 µM [3]: 95.3%
- activity at 10 µM [4]: 94.3%
- activity at 100 µM [1]: 109%
- activity at 100 µM [2]: 86.7%
- activity at 100 µM (1.5 h, read-out: cm.bpm.90min): 91.5%
- activity at 100 µM [3]: 99.4%
- activity at 100 µM [4]: 107%
- activity at 0.01 µM [5]: 79%
- activity at 0.01 µM [6]: 31.6%
- activity at 0.01 µM (24 h, read-out: cm.bpm.24hrs): 52.5%
- activity at 0.01 µM [7]: 45.2%
- activity at 0.01 µM [8]: 48.7%
- activity at 0.1 µM [5]: 60.9%
- activity at 0.1 µM [6]: 151%
- activity at 0.1 µM (24 h, read-out: cm.bpm.24hrs): 102%
- activity at 0.1 µM [7]: 90.7%
- activity at 0.1 µM [8]: 98.6%
- activity at 1 µM [5]: 86.6%
- activity at 1 µM [6]: 96.4%
- activity at 1 µM (24 h, read-out: cm.bpm.24hrs): 89.7%
- activity at 1 µM [7]: 117%
- activity at 1 µM [8]: 96.2%
- activity at 10 µM [5]: 75%
- activity at 10 µM [6]: 122%
- activity at 10 µM (24 h, read-out: cm.bpm.24hrs): 101%
- activity at 10 µM [7]: 98.6%
- activity at 10 µM [8]: 93.8%
- activity at 100 µM [5]: 85%
- activity at 100 µM [6]: 91.8%
- activity at 100 µM (24 h, read-out: cm.bpm.24hrs): 92.6%
- activity at 100 µM [7]: 99%
- activity at 100 µM [8]: 87.7%
